Source: US9738660B2, “Selective inhibitors for protein kinases and pharmaceutical composition and use thereof” (National Chiao Tung University, priority 2014, dated 2017)
Read-outs that look alike come from different tables or passages of the source.

Legend:
Test in all cases: Kinase Profiler, residual kinase activity
Assay type in all cases: biochemical
Conditions in all cases: read-out: percentage of the remaining kinase activity
PLK1 = biological target: T1, PLK1 (Homo sapiens, UniProt P53350)
T1 construct: purchased Research Biology Corp. (http://www.reactionbiology.com)

GSK3B = GSK3B (Homo sapiens, UniProt P49841)
Text: (§1) Kinase Profiler services provided by […]. (http://www.reactionbiology.com) were used to analyze the data of the 9 type-S protein kinase inhibitors against the 40 types of protein kinases.

IRAK4 = biological target: T2, IRAK4 (Homo sapiens, UniProt Q9NWZ3)
T2 sequence (Q9NWZ3 1-460): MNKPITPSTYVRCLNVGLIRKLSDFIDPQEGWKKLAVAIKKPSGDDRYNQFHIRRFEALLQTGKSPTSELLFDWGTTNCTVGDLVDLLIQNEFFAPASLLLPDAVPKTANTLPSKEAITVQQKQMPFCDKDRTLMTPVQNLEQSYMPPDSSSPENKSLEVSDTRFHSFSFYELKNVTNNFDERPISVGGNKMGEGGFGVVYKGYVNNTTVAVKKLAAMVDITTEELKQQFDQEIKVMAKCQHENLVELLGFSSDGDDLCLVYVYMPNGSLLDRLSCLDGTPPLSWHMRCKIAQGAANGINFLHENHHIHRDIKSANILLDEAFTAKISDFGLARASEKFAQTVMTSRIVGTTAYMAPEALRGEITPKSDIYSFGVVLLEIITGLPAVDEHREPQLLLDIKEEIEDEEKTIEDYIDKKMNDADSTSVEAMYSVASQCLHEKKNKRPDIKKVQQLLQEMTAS
Text: as §1

CAMK2D = CAMK2D (Homo sapiens, UniProt Q13557)
Text: as §1

INSR = biological target: T3, INSR (Homo sapiens, UniProt P06213)
T3 construct: purchased Research Biology Corp. (http://www.reactionbiology.com)
Text: as §1

FGFR2 = biological target: T4, FGFR2 (Homo sapiens, UniProt P21802)
T4 construct: purchased Research Biology Corp. (http://www.reactionbiology.com)
Text: as §1

OXSR1 = biological target: T5, OXSR1 (Homo sapiens, UniProt O95747)
T5 construct: purchased Research Biology Corp. (http://www.reactionbiology.com)
Text: as §1

JAK2 = JAK2 (Homo sapiens, UniProt O60674)
Text: as §1

DYRK1A = DYRK1A (Homo sapiens, UniProt Q13627)
Text: as §1

RPS6KA5 = biological target: T6, RPS6KA5 (Homo sapiens, UniProt O75582)
T6 construct: purchased Research Biology Corp. (http://www.reactionbiology.com)
Text: as §1

LIMK1 = LIMK1 (Homo sapiens, UniProt P53667)
Text: as §1

EGFR = biological target: T7, EGFR (Homo sapiens, UniProt P00533)
T7 construct: purchased Research Biology Corp. (http://www.reactionbiology.com)
Text: as §1

SRPK1 = biological target: T8, SRPK1 (Homo sapiens, UniProt Q96SB4)
T8 construct: purchased Research Biology Corp. (http://www.reactionbiology.com)
Text: as §1

STK4 = biological target: T9, STK4 (Homo sapiens, UniProt Q13043)
T9 construct: purchased Research Biology Corp. (http://www.reactionbiology.com)
T9 sequence (Q13043 1-487): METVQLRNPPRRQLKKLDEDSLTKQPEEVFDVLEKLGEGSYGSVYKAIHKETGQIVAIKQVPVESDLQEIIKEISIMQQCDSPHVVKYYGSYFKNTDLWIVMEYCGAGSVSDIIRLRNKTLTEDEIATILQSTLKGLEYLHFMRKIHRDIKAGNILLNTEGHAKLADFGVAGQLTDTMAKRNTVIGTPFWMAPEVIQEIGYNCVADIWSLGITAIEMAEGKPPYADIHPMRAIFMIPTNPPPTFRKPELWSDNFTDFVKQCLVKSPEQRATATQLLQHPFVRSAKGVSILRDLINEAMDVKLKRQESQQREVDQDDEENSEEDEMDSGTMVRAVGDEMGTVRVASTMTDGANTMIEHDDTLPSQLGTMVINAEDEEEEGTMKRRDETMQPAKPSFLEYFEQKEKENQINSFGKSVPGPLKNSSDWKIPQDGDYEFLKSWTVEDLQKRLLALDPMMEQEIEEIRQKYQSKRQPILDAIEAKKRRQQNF
Text: as §1

RET = RET (Homo sapiens, UniProt P07949)
Text: as §1

DAPK1 = DAPK1 (Homo sapiens, UniProt P53355)
Text: as §1

PRKACA = biological target: T10, PRKACA (Homo sapiens, UniProt P17612)
T10 construct: purchased Research Biology Corp. (http://www.reactionbiology.com)
Text: as §1

ABL1 = ABL1 (Homo sapiens, UniProt P00519)
CHEK2 = CHEK2 (Homo sapiens, UniProt O96017)
FGFR1 = FGFR1 (Homo sapiens, UniProt P11362)

Chain of JAK2 (O60674 whole entry): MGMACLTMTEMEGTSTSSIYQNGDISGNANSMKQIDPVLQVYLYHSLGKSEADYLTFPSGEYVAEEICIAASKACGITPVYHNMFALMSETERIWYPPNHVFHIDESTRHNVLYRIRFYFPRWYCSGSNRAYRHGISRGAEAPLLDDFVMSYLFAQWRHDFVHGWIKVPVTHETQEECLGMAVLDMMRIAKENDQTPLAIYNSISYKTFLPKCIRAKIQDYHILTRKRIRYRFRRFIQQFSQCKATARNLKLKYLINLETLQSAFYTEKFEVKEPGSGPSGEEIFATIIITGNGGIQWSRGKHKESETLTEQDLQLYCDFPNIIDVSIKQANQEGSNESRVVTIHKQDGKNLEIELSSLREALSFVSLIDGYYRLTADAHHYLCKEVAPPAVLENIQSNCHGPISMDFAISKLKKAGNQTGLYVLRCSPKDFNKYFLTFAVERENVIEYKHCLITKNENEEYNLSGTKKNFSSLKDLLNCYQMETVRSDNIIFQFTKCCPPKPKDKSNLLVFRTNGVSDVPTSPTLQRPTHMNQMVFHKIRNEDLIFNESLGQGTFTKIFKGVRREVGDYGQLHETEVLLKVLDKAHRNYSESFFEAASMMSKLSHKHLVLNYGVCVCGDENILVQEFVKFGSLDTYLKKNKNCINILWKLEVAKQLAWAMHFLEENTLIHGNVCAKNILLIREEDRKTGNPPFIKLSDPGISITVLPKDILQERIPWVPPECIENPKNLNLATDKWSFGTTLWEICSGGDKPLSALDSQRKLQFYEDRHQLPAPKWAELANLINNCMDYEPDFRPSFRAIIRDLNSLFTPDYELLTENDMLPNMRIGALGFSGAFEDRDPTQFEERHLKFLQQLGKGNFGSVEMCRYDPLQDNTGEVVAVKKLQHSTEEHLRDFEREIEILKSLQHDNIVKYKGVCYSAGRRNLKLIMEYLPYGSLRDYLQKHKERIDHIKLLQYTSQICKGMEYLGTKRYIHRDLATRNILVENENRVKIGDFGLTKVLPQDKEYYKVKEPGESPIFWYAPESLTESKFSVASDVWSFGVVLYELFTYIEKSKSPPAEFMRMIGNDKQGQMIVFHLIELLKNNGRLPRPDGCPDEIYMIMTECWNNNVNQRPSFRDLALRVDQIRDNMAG
T5 sequence (O95747 whole entry): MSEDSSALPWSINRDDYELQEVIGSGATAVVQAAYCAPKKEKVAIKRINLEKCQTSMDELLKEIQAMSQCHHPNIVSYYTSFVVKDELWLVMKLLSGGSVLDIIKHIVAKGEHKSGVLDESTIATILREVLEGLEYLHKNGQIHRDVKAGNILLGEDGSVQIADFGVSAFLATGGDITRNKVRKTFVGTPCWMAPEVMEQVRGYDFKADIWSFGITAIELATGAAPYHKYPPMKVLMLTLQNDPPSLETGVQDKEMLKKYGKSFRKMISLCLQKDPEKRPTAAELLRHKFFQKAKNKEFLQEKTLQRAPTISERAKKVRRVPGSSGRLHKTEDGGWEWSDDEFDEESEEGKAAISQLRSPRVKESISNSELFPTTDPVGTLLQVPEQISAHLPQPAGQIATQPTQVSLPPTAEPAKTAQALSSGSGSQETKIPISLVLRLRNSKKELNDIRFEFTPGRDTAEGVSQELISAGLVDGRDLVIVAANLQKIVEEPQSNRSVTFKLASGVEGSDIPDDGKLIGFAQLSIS
T6 sequence (O75582 whole entry): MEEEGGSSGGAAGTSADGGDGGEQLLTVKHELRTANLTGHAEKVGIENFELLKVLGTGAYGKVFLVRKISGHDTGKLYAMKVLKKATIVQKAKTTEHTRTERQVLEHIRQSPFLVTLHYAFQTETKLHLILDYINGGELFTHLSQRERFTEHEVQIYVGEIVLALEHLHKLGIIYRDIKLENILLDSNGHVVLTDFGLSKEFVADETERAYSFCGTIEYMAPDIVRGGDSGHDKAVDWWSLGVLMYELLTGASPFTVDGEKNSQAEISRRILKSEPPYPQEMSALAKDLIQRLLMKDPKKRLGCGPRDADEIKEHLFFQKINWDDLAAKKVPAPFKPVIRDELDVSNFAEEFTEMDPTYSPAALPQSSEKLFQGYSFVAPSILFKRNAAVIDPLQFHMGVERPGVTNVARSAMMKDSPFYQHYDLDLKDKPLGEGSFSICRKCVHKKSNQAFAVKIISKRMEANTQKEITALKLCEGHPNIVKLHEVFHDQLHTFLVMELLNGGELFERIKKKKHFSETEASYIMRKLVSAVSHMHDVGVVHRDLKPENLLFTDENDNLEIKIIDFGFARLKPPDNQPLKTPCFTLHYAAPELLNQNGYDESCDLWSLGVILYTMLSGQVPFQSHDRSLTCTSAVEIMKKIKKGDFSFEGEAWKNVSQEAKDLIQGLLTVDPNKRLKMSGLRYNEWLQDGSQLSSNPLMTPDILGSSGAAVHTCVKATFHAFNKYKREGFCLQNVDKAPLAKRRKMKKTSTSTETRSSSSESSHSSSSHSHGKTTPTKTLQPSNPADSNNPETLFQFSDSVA
Chain of CAMK2D (Q13557 whole entry): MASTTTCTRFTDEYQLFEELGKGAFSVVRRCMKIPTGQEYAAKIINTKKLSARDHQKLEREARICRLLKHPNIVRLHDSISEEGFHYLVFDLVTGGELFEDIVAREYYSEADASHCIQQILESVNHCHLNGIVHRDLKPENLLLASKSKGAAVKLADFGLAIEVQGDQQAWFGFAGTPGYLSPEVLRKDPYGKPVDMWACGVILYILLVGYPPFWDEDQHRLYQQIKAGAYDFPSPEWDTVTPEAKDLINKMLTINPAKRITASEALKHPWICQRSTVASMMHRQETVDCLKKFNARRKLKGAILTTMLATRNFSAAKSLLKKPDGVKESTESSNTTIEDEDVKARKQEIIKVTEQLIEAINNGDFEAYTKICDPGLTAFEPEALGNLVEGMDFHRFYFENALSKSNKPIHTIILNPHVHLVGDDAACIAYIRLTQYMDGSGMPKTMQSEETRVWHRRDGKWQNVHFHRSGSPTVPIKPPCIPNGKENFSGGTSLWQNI
T1 sequence (P53350 whole entry): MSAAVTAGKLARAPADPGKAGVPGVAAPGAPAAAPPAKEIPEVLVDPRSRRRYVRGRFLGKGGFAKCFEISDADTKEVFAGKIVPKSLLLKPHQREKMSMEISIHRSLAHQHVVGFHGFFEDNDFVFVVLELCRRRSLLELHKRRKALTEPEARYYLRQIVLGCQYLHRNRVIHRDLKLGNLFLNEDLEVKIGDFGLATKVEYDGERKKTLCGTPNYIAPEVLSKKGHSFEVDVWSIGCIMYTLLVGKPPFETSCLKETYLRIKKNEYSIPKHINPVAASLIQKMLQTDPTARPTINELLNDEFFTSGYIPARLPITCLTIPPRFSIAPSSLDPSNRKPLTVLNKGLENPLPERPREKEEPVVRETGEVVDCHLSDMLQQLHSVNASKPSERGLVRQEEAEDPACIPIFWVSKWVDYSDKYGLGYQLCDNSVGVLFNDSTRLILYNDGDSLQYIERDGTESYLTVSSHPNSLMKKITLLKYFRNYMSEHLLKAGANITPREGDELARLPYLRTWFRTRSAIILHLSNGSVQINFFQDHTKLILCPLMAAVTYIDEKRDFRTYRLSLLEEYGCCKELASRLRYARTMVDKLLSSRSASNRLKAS
Chain of DAPK1 (P53355 whole entry): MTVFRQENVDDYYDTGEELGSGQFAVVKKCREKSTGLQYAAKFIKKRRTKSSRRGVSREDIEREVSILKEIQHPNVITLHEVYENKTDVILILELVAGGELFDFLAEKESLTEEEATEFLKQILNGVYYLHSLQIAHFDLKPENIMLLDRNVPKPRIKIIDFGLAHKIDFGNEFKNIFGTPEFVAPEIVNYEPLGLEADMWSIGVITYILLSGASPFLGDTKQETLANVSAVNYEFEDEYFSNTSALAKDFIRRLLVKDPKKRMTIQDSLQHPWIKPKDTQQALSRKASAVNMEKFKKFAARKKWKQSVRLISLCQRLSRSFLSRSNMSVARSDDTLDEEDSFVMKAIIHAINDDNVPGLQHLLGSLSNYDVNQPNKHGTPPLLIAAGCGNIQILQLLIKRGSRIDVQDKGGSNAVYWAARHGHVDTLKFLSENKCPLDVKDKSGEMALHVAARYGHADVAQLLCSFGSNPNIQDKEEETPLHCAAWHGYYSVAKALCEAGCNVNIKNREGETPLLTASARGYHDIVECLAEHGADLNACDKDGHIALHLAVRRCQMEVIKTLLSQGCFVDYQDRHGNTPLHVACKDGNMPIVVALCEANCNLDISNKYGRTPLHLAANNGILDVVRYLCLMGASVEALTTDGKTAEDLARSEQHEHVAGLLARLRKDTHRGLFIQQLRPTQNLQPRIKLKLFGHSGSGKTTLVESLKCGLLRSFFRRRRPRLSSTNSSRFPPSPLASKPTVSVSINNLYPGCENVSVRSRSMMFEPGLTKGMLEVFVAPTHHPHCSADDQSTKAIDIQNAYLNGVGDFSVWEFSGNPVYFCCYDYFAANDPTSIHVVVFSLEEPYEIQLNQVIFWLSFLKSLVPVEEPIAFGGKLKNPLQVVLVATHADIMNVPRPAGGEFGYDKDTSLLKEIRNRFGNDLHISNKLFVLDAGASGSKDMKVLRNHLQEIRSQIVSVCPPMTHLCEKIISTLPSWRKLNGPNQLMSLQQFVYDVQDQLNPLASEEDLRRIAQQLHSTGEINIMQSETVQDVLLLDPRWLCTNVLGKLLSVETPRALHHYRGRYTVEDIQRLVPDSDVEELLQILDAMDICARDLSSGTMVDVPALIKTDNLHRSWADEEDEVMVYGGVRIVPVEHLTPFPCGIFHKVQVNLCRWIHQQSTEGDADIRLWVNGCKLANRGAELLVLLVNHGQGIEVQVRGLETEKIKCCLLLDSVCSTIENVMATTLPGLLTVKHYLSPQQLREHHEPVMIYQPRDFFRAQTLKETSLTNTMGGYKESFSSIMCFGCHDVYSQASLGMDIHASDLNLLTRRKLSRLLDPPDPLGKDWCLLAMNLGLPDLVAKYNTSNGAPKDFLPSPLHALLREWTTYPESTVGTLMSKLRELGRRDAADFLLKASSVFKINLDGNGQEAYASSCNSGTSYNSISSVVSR

COC1C(N(C)CCOc2cccc([N+](=O)[O-])c2)CC2OC1(C)n1c3ccccc3c3c4c(c5c6ccccc6n2c5c31)C(=O)NC4 (stereo not shown) [Compound 8]
remaining activity at 0.5 µM (PLK1): 97.7%
remaining activity at 0.5 µM (GSK3B): 51.8%
remaining activity at 0.5 µM (IRAK4): 27.9%
remaining activity at 0.5 µM (CAMK2D): 0.3%
remaining activity at 0.5 µM (INSR): 83.1%
remaining activity at 0.5 µM (FGFR2): 31.4%
remaining activity at 0.5 µM (OXSR1): 102%
remaining activity at 0.5 µM (JAK2): 5.2%
remaining activity at 0.5 µM (DYRK1A): 25.3%
remaining activity at 0.5 µM (RPS6KA5): 7.4%
remaining activity at 0.5 µM (LIMK1): 49.9%
remaining activity at 0.5 µM (EGFR): 102%
remaining activity at 0.5 µM (SRPK1): 78.3%
remaining activity at 0.5 µM (STK4): 2.7%
remaining activity at 0.5 µM (RET): 16.2%
remaining activity at 0.5 µM (DAPK1): 89.8%
remaining activity at 0.5 µM (PRKACA): 26.4%
remaining activity at 0.5 µM (ABL1): 92.5%
remaining activity at 0.5 µM (CHEK2): 46.7%
remaining activity at 0.5 µM (FGFR1): 30.1%

COC1C(N(C)Cc2ccc(-c3ccccc3)cc2)CC2OC1(C)n1c3ccccc3c3c4c(c5c6ccccc6n2c5c31)C(=O)NC4 (stereo not shown) [Compound 9]
remaining activity at 0.5 µM (PLK1; PLK1, inhibitor at 500 nM): 95.9%
remaining activity at 0.5 µM (GSK3B; GSK3B, inhibitor at 500 nM): 46.6%
remaining activity at 0.5 µM (IRAK4; IRAK4, inhibitor at 500 nM): 26.6%
remaining activity at 0.5 µM (CAMK2D; CAMK2D, inhibitor at 500 nM): 1.1%
remaining activity at 0.5 µM (INSR; INSR, inhibitor at 500 nM): 79.1%
remaining activity at 0.5 µM (FGFR2; FGFR2, inhibitor at 500 nM): 26.5%
remaining activity at 0.5 µM (OXSR1; OXSR1, inhibitor at 500 nM): 94.7%
remaining activity at 0.5 µM (JAK2; JAK2, inhibitor at 500 nM): 4.4%
remaining activity at 0.5 µM (DYRK1A; DYRK1A, inhibitor at 500 nM): 18.5%
remaining activity at 0.5 µM (RPS6KA5; RPS6KA5, inhibitor at 500 nM): 5.2%
remaining activity at 0.5 µM (LIMK1; LIMK1, inhibitor at 500 nM): 56.5%
remaining activity at 0.5 µM (EGFR; EGFR, inhibitor at 500 nM): 96.2%
remaining activity at 0.5 µM (SRPK1; SRPK1, inhibitor at 500 nM): 78.5%
remaining activity at 0.5 µM (STK4; STK4, inhibitor at 500 nM): 1.5%
remaining activity at 0.5 µM (RET; RET, inhibitor at 500 nM): 14.8%
remaining activity at 0.5 µM (DAPK1; DAPK1, inhibitor at 500 nM): 116%
remaining activity at 0.5 µM (PRKACA; PRKACA, inhibitor at 500 nM): 24.6%
remaining activity at 0.5 µM (ABL1; ABL1, inhibitor at 500 nM): 84.9%
remaining activity at 0.5 µM (CHEK2; CHEK2, inhibitor at 500 nM): 37.7%
remaining activity at 0.5 µM (FGFR1; FGFR1, inhibitor at 500 nM): 25.7%
